According to paper PMC7126595 (Bioorganic & Medicinal Chemistry, 2018):

Experiments:
Type in all cases: cell-based
[1] = tested on: varicella-zoster virus (VZV TK+); experiment: microbe, parasite or virus in culture; settings: Human alphaherpesvirus 3, HEL, read-out: EC50 (HEL cells) VZV TK+
[2] = tested on: human cytomegalovirus (HCMV Davis strain); experiment: Antiviral activity against HCMV Davis in HEL cells; settings: Human betaherpesvirus 5, HEL, read-out: EC50 (HEL cells) HCMV Davis
yellow fever virus (YFV) = experiment: microbe, parasite or virus in culture; settings: Vero, read-out: EC50 (Vero cells) YFV
Sindbis Virus (SINV) = experiment: Antiviral activity against Sindbis virus in Vero cells; settings: read-out: EC50 (Vero cells) SINV, Vero cells, viral induced cytopathic effect

For `O=c1[nH]c(=O)n([C@H]2C[C@H](O)[C@@H](CO)O2)cc1/C=C/Br` [Brivudin], the EC50 [1] was 0.012 µM.
`Nc1ccn(C[C@@H](CO)OCP(=O)(O)O)c(=O)n1` [Cidofovir] gave an EC50 [2] of 0.76 µM.
In the case of `C/C(=C\CP(=O)(N[C@@H](C)C(=O)OC(C)C)Oc1cccc2ccccc12)Cn1cc(C)c(=O)[nH]c1=O` (stereo partly drawn) [E-8a, (E)-N^1-(4′-O-(1-Naphthyl)-(isopropyloxy-L-alanine)-phosphinyl-2′-methyl-but-2′-enyl)thymine], the EC50 [1] is reported as 44.7 µM.
`COc1c(C)c2c(c(O)c1C/C=C(\C)CCC(=O)O)C(=O)OC2` [Mycophenolic acid] showed an EC50 (yellow fever virus (YFV)) of 4 µM and an EC50 (Sindbis Virus (SINV)) of 4 µM.
